Source: patent publication US12059393B2, “Compositions for topical treatment of radiation dermatitis” (Akos Biosciences, Inc, priority 2022, dated 2024)

Test system: 3D in vitro skin model containing epidermal keratinocytes and dermal fibroblasts
Assay: LDH cytotoxicity assay in 3D in vitro skin model
Type: cell-based
Conditions: positive control, no UV; defines 100% cytotoxicity
Protocol: A 3D in vitro skin model containing epidermal keratinocytes and dermal fibroblasts was used. Some tissues were irradiated with 200 mJ UVB/cm^2. Test materials were applied topically for 24 hours (after UVB exposure) and an MTT assay was used to check the viability of cells. The following treatment groups were used: • olive oil (no CBD); • CBD in olive oil in concentrations of 30, 60, 120, and 250 mg/mL; • No treatment; and • Triton-X® as positive control.
Cytotoxicity was assessed with a lactate dehydrogenase (LDH) assay using media collected from the wells of the tissues. Increased LDH activity is an indicator of damaged or dead cells.
The results are provided in the following Table A, with the untreated group defining 0% cytotoxicity and Triton-X defining 100% cytotoxicity. Lower cytotoxicity is better. * indicates p≤0.05 and ** indicates p≤0.01 statistical significance after performing unpaired t-test.

Triton-X
Cytotoxicity (%): 100%
